Source: patent US8927761B2, “Form of hexyl-5-aminolevulinate hydrochloride and methods of using the same” (Photocure ASA, priority 2012, dated 2015)

Assay: Hot stage microscopy: conversion between solid forms on heating
Assay type: physicochemical
Details: solid state; conversion to the new Form shown by observed change in crystal morphology
Procedure: Hot stage microscopy was performed using a Linkam hot stage (model FTIR 600) mounted on a Leica DM LP microscope. Sample was observed using a 20× objective. Sample was placed on a coverslip, and a second coverslip was then placed over the sample. Each sample was visually observed as the stage was heated. The hot stage was calibrated using USP melting point standards.
Characteristic data for new Form C was obtained with X-ray powder diffraction (XRPD), differential scanning calorimetry (DSC), hot stage microscopy, infrared spectroscopy (IR), Raman spectroscopy, and solid state ^13C cross polarization magic angle spinning nuclear magnetic resonance spectroscopy. The new Form is a crystalline material that melts near 99° C. […] The particle morphology is observed as rays, lathe, and/or blades. The new Form is the thermodynamically stable form above 65° C.

CCCCCCOC(=O)CCC(=O)CN.Cl [Form C, hexyl 5-aminolevulinate hydrochloride]
temperature range in which the new Form is the thermodynamically stable form: above 65 °C
